ChEMBL document CHEMBL4732091, “Design, synthesis and biological evaluation of novel thiosemicarbazone-indole derivatives targeting prostate cancer cells” (Eur J Med Chem, 2021)
Active and inactive are the calls of the source. No cut-off for these calls is given here.

Columns and labels:
DU-145 [1] = test: Induction of apoptosis in human DU-145 cells assessed as late apoptotic cells at 2 uM measured after 72 hrs by Annexin V-FITC/propidium iodide staining based flow cytometry method (reference value: 1.77 %); assay type: functional
PC-3 [2] = test: Activation of MAPK signaling in human PC-3 cells assessed as increase in phosphorylated JNK (Thr 183/Tyr 185) at 125 to 500 nM measured by Western blot assay; assay type: cell-based; conditions: filed as activator, dose 125-500 nM
PC-3 [3] = test: Induction of ROS generation in human PC-3 cells assessed as intracellular ROS level at 250 nM measured after 48 hrs by DCFH-DA staining based flowcytometry method (reference value: 55.2 %); assay type: functional
DU-145 [4] = test: Activation of MAPK signaling in human DU-145 cells assessed as increase in phosphorylated p38 (Thr 180/Tyr 182) at 125 to 500 nM measured by Western blot assay; assay type: cell-based; conditions: filed as activator, dose 125-500 nM
DU-145 [5] = test: Induction of apoptosis in human DU-145 cells assessed as increase in PARP at 0.5 to 2 uM measured by Western blot assay; assay type: functional, cell-based; conditions: dose 0.5-2 µM
PC-3 [6] = test: Cell cycle arrest in human PC-3 cells assessed as accumulation of cells in G1/S phase by measuring upregulation of p27 measured after 48 hrs by Western blot assay; assay type: functional, cell-based; conditions: dose 125-500 nM
PC-3 [7] = test: Antitumour activity against human PC-3 cells xenografted in BALB/c-NU mouse assessed as reduction in tumour growth at 25 mg/kg, IG qd measured after 21 days relative to control; assay type: functional; set-up: scale not given: the % may be the effect or the level left; conditions: time 21 day
PC-3 [8] = test: Induction of cell cycle arrest in human PC-3 cells assessed as accumulation of cells in G1/S phase at 250 nM measured after 48 hrs by propidium iodide staining based flowcytometry method (reference value: 19.23%); assay type: functional
PC-3 [9] = test: Induction of apoptosis in human PC-3 cells assessed as late apoptotic cells at 50 nM measured after 72 hrs by Annexin V-FITC/propidium iodide staining based flow cytometry method (reference value: 1.01 %); assay type: functional
DU-145 [10] = test: Induction of ROS generation in human DU-145 cells assessed as increase in intracellular ROS level measured after 48 hrs by DCFH-DA staining based flowcytometry method; assay type: functional, cell-based; conditions: dose 0.5-2 µM
MCF7 = test: Antiproliferative activity against human MCF7 cell line cells assessed as inhibition of cell proliferation measured after 72 hrs by MTT assay; assay type: functional, cell-based; conditions: MCF7, 72 h
PC-3 [11] = test: Activation of MAPK signaling in human PC-3 cells assessed as increase in phosphorylated ERK 1/2 (Thr 202/Tyr 204) at 125 to 500 nM measured by Western blot assay; assay type: cell-based; conditions: filed as activator, dose 125-500 nM
[12] = Cytotoxicity against human WPMY-1 cell line cells assessed as inhibition of cell proliferation measured after 72 hrs by MTT assay; assay type: cell-based; conditions: WPMY-1, 72 h
ECa-109 cell line = test: Antiproliferative activity against human ECa-109 cell line cells assessed as inhibition of cell proliferation measured after 72 hrs by MTT assay; assay type: functional, cell-based; conditions: ECa-109, 72 h
PC-3 [13] = test: Induction of cell cycle arrest in human PC-3 cells assessed as accumulation of cells in G1/S phase at 500 nM measured after 48 hrs by propidium iodide staining based flowcytometry method (reference value: 19.23%); assay type: functional
PC-3 [14] = test: Induction of apoptosis in human PC-3 cells assessed as early apoptotic cells at 50 nM measured after 72 hrs by Annexin V-FITC/propidium iodide staining based flow cytometry method (Rvb 0.452 %); assay type: functional
PC-3 [15] = test: Antiproliferative activity against human PC-3 cells assessed as inhibition of cell proliferation measured after 24 to 72 hrs by MTT assay; assay type: functional, cell-based; conditions: dose 0.156-20 µM, time 24-72 hrs
PC-3 [16] = test: Induction of apoptosis in human PC-3 cells assessed as formation of apoptotic bodies at 25 to 100 nM measured after 72 hrs by Hoechst staining based fluorescence microscope method; assay type: functional, cell-based; conditions: dose 25-100 nM
DU-145 [17] = test: Induction of ROS generation in human DU-145 cells assessed as intracellular ROS level at 3 uM measured after 48 hrs by DCFH-DA staining based flowcytometry method (reference value: 52 %); assay type: functional
PC-3 [18] = test: Cytotoxicity against human PC-3 cells assessed as cell viability pre-treated with SB203580 for 4 hrs followed by compound treatment and measured after 72 hrs by MTT assay; assay type: functional, cell-based
DU-145 [19] = test: Induction of apoptosis in human DU-145 cells assessed as formation of apoptotic bodies at 0.5 to 2 uM measured after 72 hrs by Hoechst staining based fluorescence method; assay type: functional, cell-based; conditions: dose 0.5-2 µM
PC-3 [20] = test: Induction of apoptosis in human PC-3 cells assessed as increase in PARP expression at 25 to 100 nM measured by Western blot assay; assay type: functional, cell-based; conditions: dose 25-100 nM
PC-3 [21] = test: Induction of apoptosis in human PC-3 cells assessed as late apoptotic cells at 100 nM measured after 72 hrs by Annexin V-FITC/propidium iodide staining based flow cytometry method (reference value: 1.01 %); assay type: functional
[22] = Toxicity in C57BL/6 mouse assessed as effect on kidney at 2 mg/kg, IG measured after 2 weeks by hematoxylin and eosin staining based imaging analysis; assay type: organism-based; conditions: in vivo, po, 336 h
PC-3 [23] = test: Induction of apoptosis in human PC-3 cells assessed as increase in Bax expression at 25 to 100 nM measured by Western blot assay; assay type: functional, cell-based; conditions: dose 25-100 nM
PC-3 [24] = test: Induction of cell cycle arrest in human PC-3 cells assessed as accumulation at G1/S phase at 125 nM measured after 48 hrs by propidium iodide staining based flowcytometry method (reference value: 19.23%); assay type: functional
DU-145 [25] = test: Induction of apoptosis in human DU-145 cells assessed as viable cells at 1 uM measured after 72 hrs by Annexin V-FITC/propidium iodide staining based flow cytometry method (reference value: 96.3 %); assay type: functional; conditions: read-out: Activity
PC-3 [26] = test: Induction of apoptosis in human PC-3 cells assessed as cell rounding at 25 to 100 nM measured after 72 hrs by Hoechst staining based fluorescence microscope method; assay type: functional; conditions: dose 25-100 nM
DU-145 [27] = test: Cell cycle arrest in human DU-145 cells assessed as accumulation of cells in G1/S phase by measuring upregulation of p27 measured after 48 hrs by Western blot assay; assay type: functional, cell-based; conditions: dose 1.5-6 µM
PC-3 [28] = test: Induction of apoptosis in human PC-3 cells assessed as viable cells at 100 nM measured after 72 hrs by Annexin V-FITC/propidium iodide staining based flow cytometry method (reference value: 97.2 %); assay type: functional; conditions: read-out: Activity
[29] = Toxicity in C57BL/6 mouse assessed as effect on heart at 2 mg/kg, IG measured after 2 weeks by hematoxylin and eosin staining based imaging analysis; assay type: organism-based; conditions: in vivo, po, 336 h
[30] = Toxicity in C57BL/6 mouse assessed as effect on spleen at 2 mg/kg, IG measured after 2 weeks by hematoxylin and eosin staining based imaging analysis; assay type: organism-based; conditions: in vivo, po, 336 h
DU-145 [31] = test: Induction of apoptosis in human DU-145 cells assessed as increased cleaved caspase 9/3 at 0.5 to 2 uM measured by Western blot assay; assay type: functional, cell-based; conditions: dose 0.5-2 µM
DU-145 [32] = test: Induction of apoptosis in human DU-145 cells assessed as early apoptotic cells at 0.5 uM measured after 72 hrs by Annexin V-FITC/propidium iodide staining based flow cytometry method (reference value: 0.835 %); assay type: functional

Q: With `Cc1ccc(/C=N/NC(=S)Nc2ccc(C(=O)NCCc3c(C)[nH]c4ccccc34)cc2)nc1` as the compound, how does the Activity (DU-145 [1]) read?
A: 38.5%

Q: What about the Activity (PC-3 [2]) of the same compound?
A: Active

Q: What about the Activity (PC-3 [3]) of the same compound?
A: 87%

Q: And the Activity (DU-145 [4])?
A: Active

Q: And the Activity (DU-145 [5])?
A: Active

Q: And the Activity (PC-3 [6])?
A: Active

Q: And the Activity (PC-3 [7])?
A: 43.4%

Q: And the Activity (PC-3 [8])?
A: 29.04%

Q: And the Activity (PC-3 [9])?
A: 33.5%

Q: What about the Activity (DU-145 [10]) of the same compound?
A: Dose-dependent effect

Q: And the IC50 (MCF7)?
A: 5.33 µM

Q: And the Activity (PC-3 [11])?
A: Active

Q: What about the IC50 [12] of the same compound?
A: 19.5 µM

Q: What about the IC50 (ECa-109 cell line) of the same compound?
A: 4.94 µM

Q: What about the Activity (PC-3 [13]) of the same compound?
A: 49.02%

Q: And the Activity (PC-3 [14])?
A: 5.6%

Q: What about the inhibition (PC-3 [15]) of the same compound?
A: Dose-dependent effect

Q: And the Activity (PC-3 [16])?
A: Active

Q: And the Activity (DU-145 [17])?
A: 75.1%

Q: And the inhibition (PC-3 [18])?
A: inactive

Q: What about the Activity (DU-145 [19]) of the same compound?
A: Active

Q: What about the Activity (PC-3 [20]) of the same compound?
A: Active

Q: And the Activity (PC-3 [21])?
A: 56.2%

Q: And the Activity [22]?
A: Non-Toxic

Q: And the Activity (PC-3 [23])?
A: Active

Q: What about the Activity (PC-3 [24]) of the same compound?
A: 19.98%

Q: And the viability at 1 µM (DU-145 [25])?
A: 62.1%

Q: What about the Activity (PC-3 [26]) of the same compound?
A: Active

Q: And the Activity (DU-145 [27])?
A: Active

Q: And the viability at 0.1 µM (PC-3 [28])?
A: 35.9%

Q: And the Activity [29]?
A: Non-Toxic

Q: And the Activity [30]?
A: Non-Toxic

Q: What about the Activity (DU-145 [31]) of the same compound?
A: Active

Q: And the Activity (DU-145 [32])?
A: 0.41%
